Measured values from PubChem BioAssay AID2060898 (Molecular Pharmacology Branch, DTP, NCI, 2025).

Test system: 616215-338-R-J1-PDC complex spheroid viability
Test: Anticancer human tumor 616215-338-R-J1-PDC patient-derived colon adenocarcinoma cell line growth inhibition [RAS]
Conditions: for viability, T/C: stronger effect = lower value
Source text: RAS pathway inhibitors in Combinations in Complex Spheroids
A high-throughput screen of multi-cell type tumor spheroids was designed to identify active combinations of RAS pathway inhibitors and targeted small molecules. Complex spheroids include a stromal component modeled by human endothelial cells (HUVEC) and fibroblasts modeled by human mesenchymal stem cells (MSCs). The concentration ranges selected for each drug and investigational agent were based upon clinically achievable concentrations if the clinical Cmax of the agent was known.
Compounds. The drugs and investigational agents: abemaciclib (NSC768073), cobimetinib (NSC768068), divarasib (GDC6063, NSC841802), docetaxel (NSC628503), GDC-1971 (RLY-1971, NSC841576), gemcitabine (NSC613327), inavolisib (NSC800729), ipatasertib (NSC767898), KB-0742 (NSC834161), MRTX-1133 (NSC836407), osimertinib (NSC779217), RMC-4630 (NSC839698), RMC-6236 (NSC851965), RMC-6291 (NSC852671), Ro-3306 (NSC812927), sapanisertib (NSC764658), SN-38 (NSC673596), staurosporine (NSC755774), SY5609 (NSC837396), and tovorafenib (DAY101, NSC766906), were obtained from the National Cancer Institute (NCI) Developmental Therapeutics Program Chemical Repository. The FDA-approved anticancer drug set is available from the NCI Developmental Therapeutics Program. […] The stock solutions were prepared in dimethyl sulfoxide (DMSO, Sigma-Aldrich, St. Louis, MO, cat. D2650) at 800-fold the tested concentration and stored at -70 degrees C prior to their use. All drugs and investigational agents were tested over a range starting from a high concentration at or near the clinical Cmax and decreasing in half-log increments. If the clinical Cmax for an agent had not been determined, the highest concentration tested was 10 microM.
Cell Culture. All cells were maintained in an incubator at 37 degrees C and 5% CO2 with 95% humidity. The PDC lines were cultured according to standard operating procedures established by the NCI PDMR. All PDCs were thawed and cultured in Matrigel-coated flasks prepared with a working solution of 1X Ham's F-12 nutrient mix, without supplementation (Invitrogen, Waltham, MA, cat. 11765054), 100 U/mL penicillin-streptomycin (Invitrogen, cat. 15140122), and 2.5% Matrigel (Corning Inc., Corning, NY, cat. 354248) for the first three passages. The 362531-283-R-J2-PDC and 782815-120-R-J1-PDC lines were cultured in 6C/Colon 1B media, which includes advanced DMEM/F-12 (Thermo Fisher Scientific, cat. 12634028), 10 mM HEPES (Thermo Fisher Scientific, cat. 15630080), 1X GlutaMAX supplement (Thermo Fisher Scientific, cat. 35050061), 0.1 mg/mL primocin (InvivoGen, San Diego, CA, cat. ant-pm-2), 10% defined fetal bovine serum, heat inactivated (HyClone Laboratories Inc., Logan, UT, cat. SH30070.03HI), 50% L-WRN conditioned media (ATCC, cat. CRL-3276), 1.25 mM N-Acetyl-L-cysteine (Sigma-Aldrich, cat. A9165), 10 mM nicotinamide (Sigma-Aldrich, cat. N0636), 1X B-27 supplement (Thermo Fisher Scientific, cat. 17504044), 1X N-2 supplement (Thermo Fisher Scientific, cat. 17502048), 50 ng/mL human EGF (Thermo Fisher Scientific, cat. PHG0311), and 10 microM Y-27632 dihydrochloride (Tocris Bioscience, cat. 1254). The K12877-001-R-J1-PDC line was cultured in 6I media, which includes all 6C/Colon 1B media plus 10 ng/mL human FGF-10 (PeproTech, cat. 100-26), 1 ng/mL human FGF-2 (PeproTech, cat. 100-18B), 1 µM prostaglandin E2 (Tocris Bioscience, cat. 2296), […] hydrocortisone (Sigma-Aldrich, cat. H4001), and […] bovine insulin (Sigma-Aldrich, cat. I6634). The K86415-001-R-J1-PDC line was cultured in 6D media, which includes all 6C/Colon 1B media components minus the L-WRN conditioned media. The 485176-168-R4-J1-PDC was cultured in PANC media, which includes all 6C/Colon 1B media plus 100 ng/mL human FGF-10 (PeproTech, cat. 100-26), 500 nM SB-431542 (Selleckchem, cat. S1067), and 10 nM gastrin (Tocris Bioscience, cat. 3006). […]
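Further: spheroids exposed to agents for seven days before viability readout.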
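Wherever viability, T/C is given: 100% = DMSO vehicle control viability.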

CC(=O)OC12COC1CC(O)C1(C)C(=O)C(O)C3=C(C)C(OC(=O)C(O)C(NC(=O)OC(C)(C)C)c4ccccc4)CC(O)(C(OC(=O)c4ccccc4)C21)C3(C)C (centres undefined) + C#Cc1c(F)ccc2cc(O)cc(-c3ncc4c(N5CC6CCC(C5)N6)nc(OCC56CCCN5CC(F)C6)nc4c3F)c12
IC50 (curve of first compound, second compound 0.0316 µM): < 31.6 nM
IC50 (curve of first compound, second compound 0.1 µM): < 31.6 nM
IC50 (curve of first compound, second compound 0.316 µM): < 31.6 nM
IC50 (curve of first compound, second compound 1 µM): < 31.6 nM
IC50 (curve of first compound, second compound 3.16 µM): < 31.6 nM
IC50 (curve of first compound, second compound 10 µM): < 31.6 nM
viability, T/C (second compound 0.0316 µM, first compound 0.0316 µM): 26.7%
viability, T/C (second compound 0.0316 µM, first compound 0.1 µM): 23.1%
viability, T/C (second compound 0.0316 µM, first compound 0.316 µM): 18.6%
viability, T/C (second compound 0.0316 µM, first compound 1 µM): 18.8%
viability, T/C (second compound 0.0316 µM, first compound 3.16 µM): 22.8%
viability, T/C (second compound 0.0316 µM, first compound 10 µM): 23%
viability, T/C (second compound 0.1 µM, first compound 0.0316 µM): 26.2%
viability, T/C (second compound 0.1 µM, first compound 0.1 µM): 23.6%
viability, T/C (second compound 0.1 µM, first compound 0.316 µM): 17.9%
viability, T/C (second compound 0.1 µM, first compound 1 µM): 18%
viability, T/C (second compound 0.1 µM, first compound 3.16 µM): 25.9%
viability, T/C (second compound 0.1 µM, first compound 10 µM): 23.3%
viability, T/C (second compound 0.316 µM, first compound 0.0316 µM): 29.3%
viability, T/C (second compound 0.316 µM, first compound 0.1 µM): 21.3%
viability, T/C (second compound 0.316 µM, first compound 0.316 µM): 18%
viability, T/C (second compound 0.316 µM, first compound 1 µM): 18.1%
viability, T/C (second compound 0.316 µM, first compound 3.16 µM): 22.4%
viability, T/C (second compound 0.316 µM, first compound 10 µM): 22.1%
viability, T/C (second compound 1 µM, first compound 0.0316 µM): 23%
viability, T/C (second compound 1 µM, first compound 0.1 µM): 19.6%
viability, T/C (second compound 1 µM, first compound 0.316 µM): 20.9%
viability, T/C (second compound 1 µM, first compound 1 µM): 17.1%
viability, T/C (second compound 1 µM, first compound 3.16 µM): 19.1%
viability, T/C (second compound 1 µM, first compound 10 µM): 19.4%
viability, T/C (second compound 3.16 µM, first compound 0.0316 µM): 20.7%
viability, T/C (second compound 3.16 µM, first compound 0.1 µM): 17.4%
viability, T/C (second compound 3.16 µM, first compound 0.316 µM): 15.9%
viability, T/C (second compound 3.16 µM, first compound 1 µM): 15.1%
viability, T/C (second compound 3.16 µM, first compound 3.16 µM): 17.9%
viability, T/C (second compound 3.16 µM, first compound 10 µM): 23.4%
viability, T/C (second compound 10 µM, first compound 0.0316 µM): 14.5%
viability, T/C (second compound 10 µM, first compound 0.1 µM): 14.9%
viability, T/C (second compound 10 µM, first compound 0.316 µM): 16.1%
viability, T/C (second compound 10 µM, first compound 1 µM): 13%
viability, T/C (second compound 10 µM, first compound 3.16 µM): 17.5%
viability, T/C (second compound 10 µM, first compound 10 µM): 12.3%

CCn1c(-c2cccnc2C(C)OC)c2c3cc(ccc31)N1CCOC(CC(NC(=O)C(C(C)C)N(C)C(=O)C3(F)CCN(C(=O)C#CC(C)(C)N(C)C)CC3)C(=O)N3CCCC(N3)C(=O)OCC(C)(C)C2)C1 (centres undefined)
viability, T/C (compound 0.000949 µM): 102% [middle of 8 runs]
viability, T/C (compound 0.003 µM): 102% [middle of 8 runs]
viability, T/C (compound 0.00949 µM): 107% [middle of 8 runs]
viability, T/C (compound 0.03 µM): 106% [middle of 8 runs]
viability, T/C (compound 0.0949 µM): 110% [middle of 8 runs]
viability, T/C (compound 0.3 µM): 109% [middle of 8 runs]
IC50 (compound alone, run of 05/20/2024): > 300 nM
